Results taken from patent US7544707B2, “Bicyclic derivatives as PPAR modulators” (Eli Lilly and Company, priority 2003, dated 2009).

Structure (SMILES) | melting point [°C]
Cc1cc(SCc2cccc3c2cnn3-c2ccc(C(F)(F)F)cc2)ccc1OCC(=O)O [Example 30, 2-Methyl-4-[1-(4-trifluoromethylphenyl)-1H-indazol-4-ylmethylsulfanyl]phenoxyacetic Acid] | 132 to 134
CCc1cc(SCc2cccc3c2cnn3-c2ccc(C(F)(F)F)cc2)ccc1OCC(=O)O [Example 31, 2-Ethyl-4-[1-(4-trifluoromethylphenyl)-1H-indazol-4-ylmethylsulfanyl]phenoxyacetic Acid] | 122 to 124
Cc1cc(SCc2cccc3c2cnn3-c2ccc(C(F)(F)F)cc2)ccc1CCC(=O)O [Example 32, 3-{2-Methyl-4-[1-(4-trifluoromethylphenyl)-1H-indazol-4-ylmethylsulfanyl]phenyl}propionic Acid] | 113 to 115
Cc1cc(SCc2cccc3cnn(-c4ccc(C(F)(F)F)cc4)c23)ccc1CCC(=O)O [Example 33, 3-{2-Methyl-4-[1-(4-trifluoromethylphenyl)-1H-indazol-7-ylmethylsulfanyl]phenyl}propionic Acid] | 120 to 123
Cc1cc(SCc2cccc3cnn(-c4ccc(C(F)(F)F)cc4)c23)ccc1OCC(=O)O [Example 34, 2-Methyl-4-[1-(4-trifluoromethylphenyl)-1H-indazol-7-ylmethylsulfanyl]phenoxyacetic Acid] | 118 to 121
Cc1cc(SCc2cccc3cn(-c4ccc(C(F)(F)F)cc4)nc23)ccc1OC(C)(C)C(=O)O [Example 35, 2-Methyl-2-{2-methyl-4-[2-(4-trifluoromethylphenyl)-2H-indazol-7-ylmethylsulfanyl]phenoxy}propionic Acid] | 135 to 137
CC(C)(Oc1ccc(SCc2cccc3cn(-c4ccc(C(F)(F)F)cc4)nc23)cc1)C(=O)O [Example 36, 2-Methyl-2-{4-[2-(4-trifluoromethylphenyl)-2H-indazol-7-ylmethylsulfanyl]phenoxy}propionic Acid] | 140 to 142
Cc1cc(OCc2cccc3cn(-c4ccc(C(F)(F)F)cc4)nc23)ccc1OC(C)(C)C(=O)O [Example 37, 2-Methyl-2-{2-methyl-4-[2-(4-trifluoromethylphenyl)-2H-indazol-7-ylmethoxy]phenoxy}propionic Acid] | 165 to 167
CC(C)(Sc1ccc(OCc2cccc3cn(-c4ccc(C(F)(F)F)cc4)nc23)cc1)C(=O)O [Example 38, 2-Methyl-2-{4-[2-(4-trifluoromethylphenyl)-2H-indazol-7-ylmethoxy]phenylsulfanyl}propionic Acid] | 175 to 177
CC(C)(Oc1ccc(OCc2cccc3cn(-c4ccc(C(F)(F)F)cc4)nc23)cc1)C(=O)O [Example 39, 2-Methyl-2-{4-[2-(4-trifluoromethylphenyl)-2H-indazol-7-ylmethoxy]phenoxy}propionic Acid] | 178 to 180
CCc1cc(SCCc2cccc3cn(-c4ccc(C(F)(F)F)cc4)nc23)ccc1OCC(=O)O [Example 45, (2-Ethyl-4-{2-[2-(4-trifluoromethylphenyl)-2H-indazol-7-yl]ethylsulfanyl}phenoxy)acetic Acid] | 115 to 117
Cc1cc(SCCc2cccc3cn(-c4ccc(C(F)(F)F)cc4)nc23)ccc1OCC(=O)O [Example 46, (2-Methyl-4-{2-[2-(4-trifluoromethylphenyl)-2H-indazol-7-yl]ethylsulfanyl}phenoxy)acetic Acid] | 137 to 139
CC(C)(Oc1ccc(OCCc2cccc3cn(-c4ccc(C(F)(F)F)cc4)nc23)cc1)C(=O)O [Example 47, 2-Methyl-2-(4-{2-[2-(4-trifluoromethylphenyl)-2H-indazol-7-yl]ethoxy}phenoxy)propionic Acid] | 122 to 124
Cc1cc(OCCc2cccc3cn(-c4ccc(C(F)(F)F)cc4)nc23)ccc1OC(C)(C)C(=O)O [Example 48, 2-Methyl-2-(2-methyl-4-{2-[2-(4-trifluoromethylphenyl)-2H-indazol-7-yl]ethoxy}phenoxy)propionic Acid] | 133 to 135
